Test system: subjects with TRD
Assay: Example 1 Part B: preliminary efficacy on depression rating scales in subjects with TRD
Format: in vivo, human
Conditions: for Effect size, HAM-D6 for ≤55 years old / Effect size, HAM-D6 for ≥36 MADRS at baseline / Effect size, CGI-S for ≤55 years old / Effect size, MADRS Total for ≤55 years old / Effect size, CGI-S for ≥36 MADRS at baseline / Effect size, MADRS Total for ≥36 MADRS at baseline / Effect size, IDS-SR Psychomotor Domain / Effect size, MADRS-06 (core) / Effect size, MADRS-08 (core-plus): post-hoc; for Effect size, HAM-D6 for ≤55 years old / Effect size, CGI-S for ≤55 years old / Effect size, MADRS Total for ≤55 years old: N = 14; for Effect size, HAM-D6 for ≥36 MADRS at baseline / Effect size, CGI-S for ≥36 MADRS at baseline / Effect size, MADRS Total for ≥36 MADRS at baseline: N = 16
Description: Primary Efficacy Endpoint: The primary efficacy endpoint was the difference between the compound A group and the placebo group in change from baseline in the Montgomery Asberg Depression Rating Scale (MADRS) total score at Day 2 (24 hours post dose).
Secondary Efficacy Endpoints: Secondary preliminary efficacy endpoints were the difference between the compound A group and the placebo group in: • change from baseline in the MADRS total score at each time point • change from baseline in the Hamilton Depression Rating Scale-6 Item (HAM-D6) total score at each time point • change from baseline in the IDS-SR30 total score and domain scores at each time point • change from baseline in the Clinical Global Impression-Severity (CGI-S) score at each time point
Preliminary Efficacy Evaluations: Other psychiatric evaluations were performed to assess preliminary efficacy in Part B only. These evaluations included the Montgomery-Asberg Depression Rating Scale (MADRS), the Hamilton Depression Rating Scale-6 Item (HAM-D6), the Clinical Global Impression-Severity (CGI-S), and the Inventory of Depressive Symptomatology (30-item, self-rated version) (IDS-SRN). Montgomery-Asberg Depression Rating Scale (MADRS).
The MADRS is a clinician-administered scale used to assess the range of symptoms that are most frequently observed in patients with major depression. The scale includes 10 items, each scored on a scale of 0 to 6. The MADRS was administered centrally by a third-party independent rater blinded to protocol, visit, and treatment.
Hamilton Depression Rating Scale-6 Item (HAM-D6): The HAM-D6 is a clinician-administered scale used to assess key domains of depressive symptomatology. The HAM-D6 was derived from the original 17-item version of the scale (HAM-D17). Five of the six items are scored on a scale of 0 to 4, and one item is scored on a scale of 0 to 2.
Clinical Global Impression-Severity (CGI-S): The CGI-S is a 7-point clinician-administered scale used to assess the severity of the patient's illness at the time of assessment relative to the clinician's past experience with patients who have the same diagnosis.
Inventory of Depressive Symptomatology (30-Item, Self-Rated Version) (IDS-SR30): The IDS-SR30 is a self-rated scale used to assess the severity of depressive symptomatology. The scale includes 30 items, each scored on a scale of 0 to 3.
The MADRS total score was centrally administered. The HAM-D6 was site-administered. The CGI-S was site physician administered. The IDS-SR was patient self-administered. MADRS-6 and MADRS-8 scores were then extrapolated post hoc from the MADRS total scores.
MADRS-10 items include apparent sadness, reported sadness, inner tension, reduced sleep, reduced appetite, concentration difficulties, lassitude, inability to feel, pessimistic thoughts, and suicidal thoughts. MADRS-6 items include apparent sadness, reported sadness, inner tension, lassitude, inability to feel, and pessimistic thoughts. MADRS-8 items include apparent sadness, reported sadness, inner tension, concentration difficulties, lassitude, inability to feel, pessimistic thoughts, and suicidal thoughts. HAM-D6 items include depressed mood, low self-esteem/guilt, work and interests, psychomotor retardation, psychic anxiety, and somatic symptoms.
When determining clinically significant antidepressant effect, it is recommended to use standardized effect size statistics. The correct use of depression rating scales in clinical trials of antidepressants is to indicate the effect size of the specific items of depression and to accept an effect size of 0.40 or higher as being the clinically significant effect. An effect size of ≥0.2 indicates early improvement. An effect size of ≥0.4 indicates a clinical response.

[1] = single 2400 mg vs placebo, 12 h
[2] = single 2400 mg vs placebo, 24 h
[3] = single 2400 mg vs placebo, 24 h, N = 31
[4] = single 2400 mg vs placebo, 24 h, prespecified, N = 31
[5] = single 2400 mg vs placebo, 36 h
[6] = single 2400 mg vs placebo, 48 h
[7] = single 2400 mg vs placebo, 48 h, N = 31
[8] = single 2400 mg vs placebo, 48 h, prespecified, N = 31
[9] = single 2400 mg vs placebo, 72 h
[10] = single 2400 mg vs placebo, 72 h, N = 31

CC(C)(C[C@H](N)C(=O)O)C(F)F [Compound A, (S)-2-amino-5,5-difluoro-4,4-dimethylpentanoic acid]
duration of numerical benefits on HAM-D6 (single 2400 mg): 24 to 72 h
onset of efficacy on HAM-D6 (single 2400 mg): as early as two hours post-dose
MADRS items with greater impact than placebo (single 2400 mg vs placebo): inner tension, concentration, pessimistic thoughts, and inability to feel
Effect size, HAM-D6 for ≤55 years old (single 2400 mg vs placebo, 2 h): 0.8
Effect size, HAM-D6 for ≥36 MADRS at baseline (single 2400 mg vs placebo, 2 h): 1.0
Effect size, HAM-D6 (single 2400 mg vs placebo, 2 h, prespecified, N = 31): 0.6
Effect size, HAM-D6 for ≤55 years old (single 2400 mg vs placebo, 4 h): 1.0
Effect size, HAM-D6 for ≥36 MADRS at baseline (single 2400 mg vs placebo, 4 h): 1.1
Effect size, HAM-D6 (single 2400 mg vs placebo, 4 h, prespecified, N = 31): 0.8
Effect size, HAM-D6 for ≤55 years old (single 2400 mg vs placebo, 8 h): 1.1
Effect size, HAM-D6 for ≥36 MADRS at baseline (single 2400 mg vs placebo, 8 h): 0.8
Effect size, HAM-D6 (single 2400 mg vs placebo, 8 h, prespecified, N = 31): 0.7
Effect size, HAM-D6 for ≤55 years old [1]: 1.3
Effect size, HAM-D6 for ≥36 MADRS at baseline [1]: 0.9
Effect size, HAM-D6 (single 2400 mg vs placebo, 12 h, prespecified, N = 31): 0.8
Effect size, CGI-S for ≤55 years old [2]: 0.2
Effect size, HAM-D6 for ≤55 years old [2]: 0.9
Effect size, MADRS Total for ≤55 years old [2]: 0.6
Effect size, CGI-S for ≥36 MADRS at baseline [2]: 0.2
Effect size, HAM-D6 for ≥36 MADRS at baseline [2]: 0.8
Effect size, MADRS Total for ≥36 MADRS at baseline [2]: 0.4
Effect size, IDS-SR Psychomotor Domain [3]: 0.8
Effect size, MADRS-06 (core) [3]: 0.3
Effect size, MADRS-08 (core-plus) [3]: 0.3
Effect size, CGI-S Change from baseline [4]: -0.1
Effect size, HAM-D6 [4]: 0.5
Effect size, IDS-SR 30 Total Score [4]: 0.3
Effect size, MADRS Total Score (prelim. primary @24 h) [4]: 0.1
Effect size, HAM-D6 for ≤55 years old [5]: 1.3
Effect size, HAM-D6 for ≥36 MADRS at baseline [5]: 0.9
Effect size, HAM-D6 (single 2400 mg vs placebo, 36 h, prespecified, N = 31): 0.5
Effect size, CGI-S for ≤55 years old [6]: 0.4
Effect size, HAM-D6 for ≤55 years old [6]: 1.2
Effect size, MADRS Total for ≤55 years old [6]: 0.6
Effect size, CGI-S for ≥36 MADRS at baseline [6]: 0.7
Effect size, HAM-D6 for ≥36 MADRS at baseline [6]: 0.9
Effect size, MADRS Total for ≥36 MADRS at baseline [6]: 0.3
Effect size, IDS-SR Psychomotor Domain [7]: 0.3
Effect size, MADRS-06 (core) [7]: 0.3
Effect size, MADRS-08 (core-plus) [7]: 0.3
Effect size, CGI-S Change from baseline [8]: 0.1
Effect size, HAM-D6 [8]: 0.5
Effect size, IDS-SR 30 Total Score [8]: 0.3
Effect size, MADRS Total Score [8]: 0.2
Effect size, CGI-S for ≤55 years old [9]: 0.2
Effect size, HAM-D6 for ≤55 years old [9]: 1.1
Effect size, MADRS Total for ≤55 years old [9]: 0.3
Effect size, CGI-S for ≥36 MADRS at baseline [9]: 1.0
Effect size, HAM-D6 for ≥36 MADRS at baseline [9]: 0.8
Effect size, MADRS Total for ≥36 MADRS at baseline [9]: 0.3
Effect size, IDS-SR Psychomotor Domain [10]: 0.6
Effect size, MADRS-06 (core) [10]: 0.1
Effect size, MADRS-08 (core-plus) [10]: 0.1
